Legend:
[1] = 101.33 kPa, Liquid
[2] = xn = mol fraction of the nth substance listed; conditions: 101.3 kPa, Liquid

C1COCO1 [1,3-dioxolane]
[1]
Conditions	mass density [kg/m3]	speed of sound [m/s]
298.15 K	1058.98	1340.2
313.15 K	1040	1270.9

C1COCO1 [1,3-dioxolane] + CC(C)(C)O
[2]
Conditions	mass density, 298.15 K [kg/m3]	mass density, 313.15 K [kg/m3]	speed of sound, 298.15 K [m/s]	speed of sound, 313.15 K [m/s]
x1 = 0.0495	789.79	–	1129.2	–
x1 = 0.0567	–	775.49	–	1065.2
x1 = 0.0949	–	782.77	–	1071.1
x1 = 0.0965	798.83	–	1135.6	–
x1 = 0.1973	–	803.78	–	1087.4
x1 = 0.1996	820.33	–	1151	–
x1 = 0.2909	840.96	–	1165.8	–
x1 = 0.2919	–	824.8	–	1103.5
x1 = 0.4039	–	851.81	–	1123.4
x1 = 0.4049	868.7	–	1186.2	–
x1 = 0.4951	–	875.4	–	1141.2
x1 = 0.4972	892.83	–	1204.9	–
x1 = 0.5948	–	903.12	–	1162.4
x1 = 0.5974	920.82	–	1226.8	–
x1 = 0.6997	–	934.45	–	1187.1
x1 = 0.7033	952.73	–	1252.5	–
x1 = 0.8031	–	967.86	–	1213.5
x1 = 0.8033	985.46	–	1279.3	–
x1 = 0.8944	1017.75	–	1305.9	–
x1 = 0.8959	–	1000.17	–	1239.6
x1 = 0.9439	1036.49	–	1321.3	–
x1 = 0.9464	–	1018.99	–	1254.3

C1COCCO1 [1,4-dioxane] + CC(C)(C)O
[2]
Conditions	mass density, 298.15 K [kg/m3]	mass density, 313.15 K [kg/m3]	speed of sound, 298.15 K [m/s]	speed of sound, 313.15 K [m/s]
x1 = 0.0502	791.11	–	1133.5	–
x1 = 0.0525	–	776.05	–	1069.8
x1 = 0.0802	797.29	–	1139.5	–
x1 = 0.0886	–	783.75	–	1078.1
x1 = 0.2051	–	808.89	–	1102.3
x1 = 0.2164	826.41	–	1166.2	–
x1 = 0.287	–	827.2	–	1118.9
x1 = 0.2915	843.19	–	1180.4	–
x1 = 0.3926	–	851.46	–	1139.9
x1 = 0.3944	867.16	–	1201.4	–
x1 = 0.4938	–	875.49	–	1160.8
x1 = 0.496	891.65	–	1222.4	–
x1 = 0.592	–	899.61	–	1181.6
x1 = 0.5929	915.92	–	1243.8	–
x1 = 0.6814	938.8	–	1264.1	–
x1 = 0.6904	–	924.78	–	1202.7
x1 = 0.7994	–	953.91	–	1227.9
x1 = 0.8029	971.23	–	1293.2	–
x1 = 0.8871	–	978.21	–	1250.3
x1 = 0.8893	995.28	–	1315.3	–
x1 = 0.9287	1006.7	–	1325.5	–
x1 = 0.9421	–	993.91	–	1264.2

C1COCCO1 [1,4-dioxane]
[1]
Conditions	mass density [kg/m3]	speed of sound [m/s]
298.15 K	1027.96	1344.8
313.15 K	1010.8	1279.8

CC(C)(C)O [2-methylpropan-2-ol]
[1]
Conditions	mass density [kg/m3]	speed of sound [m/s]
298.15 K	780.86	1122.8
313.15 K	765.16	1057.4

CC(C)CO [2-methyl-1-propanol] + C1COCCO1
[2]
Conditions	mass density, 298.15 K [kg/m3]	mass density, 313.15 K [kg/m3]	speed of sound, 298.15 K [m/s]	speed of sound, 313.15 K [m/s]
x2 = 0.0559	809.27	–	1196.2	–
x2 = 0.0612	–	798.12	–	1146
x2 = 0.0898	–	803.92	–	1149.5
x2 = 0.0943	817.3	–	1201.4	–
x2 = 0.1946	–	825.35	–	1162.3
x2 = 0.1959	838.82	–	1215.5	–
x2 = 0.2981	860.89	–	1229.7	–
x2 = 0.3039	–	848.25	–	1176.2
x2 = 0.4033	–	869.73	–	1189.2
x2 = 0.4039	884.22	–	1245.1	–
x2 = 0.5062	907.2	–	1260.6	–
x2 = 0.5086	–	892.99	–	1203.6
x2 = 0.5674	–	906.3	–	1211.8
x2 = 0.603	929.49	–	1276.1	–
x2 = 0.7018	–	937.3	–	1232
x2 = 0.7021	952.9	–	1292.4	–
x2 = 0.7966	976	–	1308.7	–
x2 = 0.8296	–	967.84	–	1251.9
x2 = 0.8879	–	982.25	–	1261
x2 = 0.8943	1000.57	–	1326	–
x2 = 0.9298	–	992.74	–	1267.7
x2 = 0.9328	1010.53	–	1333	–

C1COCO1 [1,3-dioxolane] + CC(C)CO
[2]
Conditions	mass density, 298.15 K [kg/m3]	mass density, 313.15 K [kg/m3]	speed of sound, 298.15 K [m/s]	speed of sound, 313.15 K [m/s]
x1 = 0.0434	–	793.86	–	1140.5
x1 = 0.0675	810.83	–	1193.2	–
x1 = 0.0922	–	802.94	–	1143.6
x1 = 0.0932	815.89	–	1195.3	–
x1 = 0.1938	–	822.73	–	1151.2
x1 = 0.2005	837.99	–	1205.1	–
x1 = 0.2946	858.48	843.76	1214.8	1159.9
x1 = 0.395	881.68	–	1226.7	–
x1 = 0.3984	–	866.86	–	1170.5
x1 = 0.5044	–	892.29	–	1182.9
x1 = 0.5062	908.95	–	1241.8	–
x1 = 0.6042	–	917.95	–	1196.4
x1 = 0.6065	935.18	–	1258.1	–
x1 = 0.6962	–	943.18	–	1211.4
x1 = 0.6977	960.69	–	1274.3	–
x1 = 0.7995	991.23	–	1295.4	–
x1 = 0.8009	–	974.09	–	1230.6
x1 = 0.8928	–	1003.34	–	1249.5
x1 = 0.8957	1022.45	–	1316.5	–
x1 = 0.9439	–	1020.41	–	1260.2
x1 = 0.9451	1039.33	–	1327.6	–

CC(C)CO [2-methyl-1-propanol]
[1]
Conditions	mass density [kg/m3]	speed of sound [m/s]
298.15 K	797.83	1188.5
313.15 K	785.96	1138.4

— the NIST ThermoML archive (doi:10.1016/j.jct.2004.07.015)
